Values after ≈ are worked out from the molar mass of the structure shown.
Experiments:
Cryptococcus neoformans = test: Compound was tested for in vitro antifungal activity against Cryptococcus neoformans (CY1057)
Candida albicans = test: Compound was tested for in vitro antifungal activity against Candida albicans (CY3003); type: functional
Aspergillus fumigatus = test: Compound was tested in vitro for antifungal activity against Aspergillus fumigatus (CF1003); type: functional
Mus musculus = test: Compound was tested for antifungal activity by measuring systemic candidosis in mice on 7th day upon single peroral administration; type: functional; conditions: po

Structure (SMILES) | IC80 (Cryptococcus neoformans) [µg/mL] | IC80 (Candida albicans) [µg/mL] | IC80 (Aspergillus fumigatus) [µg/mL] | ED50 (Mus musculus) [mg/kg]
COC1[C@@H](Cn2cncn2)[C@H](COc2ccc(OC(C)(C)C)cc2)CC[C@@]1(C)CCn1ccnc1 (stereo partly specified) | 0.24 (≈ 0.498 µM) | 0.08 (≈ 0.166 µM) | 84 (≈ 174 µM) | 50
OC(Cn1cncn1)(Cn1cncn1)c1ccc(F)cc1F [FLUCONAZOLE] | 3.6 (≈ 11.8 µM) | 1.4 (≈ 4.57 µM) | > 200 | 5.4
COC1[C@@H](Cn2cncn2)[C@H](COc2ccc(OC(C)(C)C)cc2)CC[C@@]1(C)CCS(C)(=O)=O (stereo partly specified) | 0.38 (≈ 0.77 µM) | 0.7 (≈ 1.42 µM) | > 200 | 50
CSCC[C@]1(C)CC[C@@H](COc2ccc(OC(C)(C)C)cc2)[C@H](Cn2cncn2)/C1=N/O | 21 (≈ 45.6 µM) | 0.18 (≈ 0.391 µM) | 0.45 (≈ 0.977 µM) | > 100
CO/N=C1/[C@@H](Cn2cncn2)[C@H](COc2ccc(OC(C)(C)C)cc2)CC[C@@]1(C)CCSc1ncccn1 | 1.1 (≈ 2.04 µM) | 0.85 (≈ 1.58 µM) | 2.6 (≈ 4.83 µM) | > 100
COC1[C@@H](Cn2cncn2)[C@H](COc2ccc(OC(C)(C)C)cc2)CC[C@@]1(C)CCN1CCOCC1 (stereo partly specified) | 0.02 (≈ 0.0399 µM) | 0.03 (≈ 0.0599 µM) | 158 (≈ 316 µM) | 50
COCC[C@]1(C)CC[C@@H](COc2ccc(OC(C)(C)C)cc2)[C@H](Cn2cncn2)/C1=N/OC | 1 (≈ 2.18 µM) | 0.05 (≈ 0.109 µM) | 0.6 (≈ 1.31 µM) | > 100
CO/N=C1/[C@@H](Cn2cncn2)[C@H](COc2ccc(OC(C)(C)C)cc2)CC[C@@]1(C)CCn1ccnc1 | 13 (≈ 26.3 µM) | 0.22 (≈ 0.445 µM) | 4.6 (≈ 9.3 µM) | > 100
CO[C@@H]1[C@@H](Cn2cncn2)[C@H](COc2ccc(OC(C)(C)C)cc2)CC[C@@]1(C)CCSc1nccn1C | 0.9 (≈ 1.71 µM) | 0.5 (≈ 0.947 µM) | 36 (≈ 68.2 µM) | 50

Reference: ChEMBL document CHEMBL1130884, “Synthesis of novel antifungal agents (2)” (1998)
